Measured values as given in patent US9644175B2, “Antimicrobial amino-salicylic acid derivatives” (BASF SE, priority 2009, dated 2017).

Tests used:
Type in all cases: cell-based
[1] = tested on: Escherichia coli ATCC 10536; experiment: Suspension test, bactericidal activity (modified EN 1040); settings: room temperature, start about 10^7 cfu/ml
Description: (§1) The following examples illustrate the invention. Unless indicated otherwise, percentages refer to percent by weight (b.w.), room temperature denotes a temperature from the range 20-24° C. The determination of bactericidal activity and fungicidal activity in surfactants or shampoo formulations of the present invention is measured in a suspension test according to trivial modifications of the European Standard methods EN 1040 and EN 1275, respectively. The bactericidal activity of the compounds of the present invention is measured in a suspension test (trivial modification of the European Standard method EN 1040). Substances listed in Table 1 are tested against gram positive and gram negative bacteria. The compound of the invention is dissolved in ethanol resulting in a 1% b.w. stock solution. The cell densities of the bacterial suspensions used as inoculums for the suspension test are as follows (cfu=colony forming units): [table] For the suspension tests, an appropriate concentration of the test compound is mixed with a bacterial suspension resulting in a final cell count in the mixture of about 10^7 cfu/ml. These test mixtures are incubated at room temperature (22° C.+/−2° C.) and aliquots of 1 ml test mixture containing the test bacteria are taken after set contact times for determination of the residual cell count of test bacteria. For inactivation of the antimicrobial compounds, the 1 ml aliquots are diluted in 1:10 steps with an aqueous solution containing 10% of Tween 80 (a polyethoxylated sorbitan ester surfactant), 3% lecithin, 0.1% histidine and 0.5% sodium thiosulfate.

[2] = tested on: Pseudomonas aeruginosa ATCC15442; experiment: as above; settings: room temperature, start about 10^7 cfu/ml
Description: as §1

[3] = tested on: Staphylococcus aureus ATCC 6538; experiment: as above; settings: room temperature, start about 10^7 cfu/ml
Description: as §1

[4] = tested on: Candida albicans ATCC 10231; experiment: Suspension test, fungicidal activity (modified EN 1275), Table A; settings: contact time 24 h
Description: The following examples illustrate the invention. Unless indicated otherwise, percentages refer to percent by weight (b.w.), room temperature denotes a temperature from the range 20-24° C. The determination of bactericidal activity and fungicidal activity in surfactants or shampoo formulations of the present invention is measured in a suspension test according to trivial modifications of the European Standard methods EN 1040 and EN 1275, respectively. For the suspension tests, an appropriate concentration of the test compound is mixed with a bacterial suspension resulting in a final cell count in the mixture of about 10^7 cfu/ml. These test mixtures are incubated at room temperature (22° C.+/−2° C.) and aliquots of 1 ml test mixture containing the test bacteria are taken after set contact times for determination of the residual cell count of test bacteria. For inactivation of the antimicrobial compounds, the 1 ml aliquots are diluted in 1:10 steps with an aqueous solution containing 10% of Tween 80 (a polyethoxylated sorbitan ester surfactant), 3% lecithin, 0.1% histidine and 0.5% sodium thiosulfate. The fungicidal activity of the compounds of the present invention is measured in a suspension test (trivial modification of the European Standard method EN 1275). The compound of the invention is dissolved in ethanol resulting in a 1% b.w. solution of the compound. […]

[5] = tested on: Escherichia coli ATCC 10536; experiment: Suspension test of compound in surfactants and shampoo; settings: 24 h, start 10^5 cfu/ml
Description: (§2) The following examples illustrate the invention. Unless indicated otherwise, percentages refer to percent by weight (b.w.), room temperature denotes a temperature from the range 20-24° C. The determination of bactericidal activity and fungicidal activity in surfactants or shampoo formulations of the present invention is measured in a suspension test according to trivial modifications of the European Standard methods EN 1040 and EN 1275, respectively. The compound of the invention is incorporated in an anionic surfactant, for example sodium laureth sulphate (Epicol ESB 70), or a non-ionic surfactant such as decyl glucoside (Plantacare 2000UP), or an amphoteric surfactant, for example cocamidopropyl betaine (Tego Betain F50). Each of the surfactants is tested at 10% a.i. Furthermore, the 5-amino-salicylic acid derivatives of the invention are incorporated in a typical shampoo formulation with the following composition: • 0.01 to 5% by weight of 5 amino-salicylic acid derivative, • 7.0% by weight sodium laureth-2-sulfate, • 2.5% by weight decyl glucoside • 4.0% by weight cocamidopropyl betaine, • 1.0% by weight NaCl and • water ad 100%. • pH 6 is adjusted with NaOH. The surfactant solutions and shampoo formulations tested contain 1% b.w. of the compound of the invention. The cell densities of the bacterial suspensions used as inoculums for the suspension tests are as follows (cfu=colony forming units): [table] The cell density in the test is adjusted to 10^5 cfu/ml. These test mixtures are incubated at room temperature (22° C.+/−2° C.) and aliquots of 1 ml test mixture are taken after set contact times for determination of the residual cell count. For inactivation of the antimicrobial compounds, the 1 ml aliquots are diluted in 1:10 steps with an aqueous solution containing 10% Tween 80 (a polyethoxylated sorbitan ester surfactant), 3% lecithin, 0.1% histidine and 0.5% sodium thiosulfate.

[6] = tested on: Pseudomonas aeruginosa ATCC 15442; experiment: as above; settings: 24 h, start 10^5 cfu/ml
Description: as §2

[7] = tested on: Staphylococcus aureus ATCC 6538; experiment: as above; settings: 24 h, start 10^5 cfu/ml
Description: as §2

[8] = tested on: Aspergillus niger ATCC 6275; experiment: as above; settings: 7 days, start 10^5 cfu/ml
Description: as §2, with “respectively. The fungicidal activity of the compounds of the present invention is measured in a suspension test (trivial modification of the European Standard method EN 1275).” for “respectively.”

[9] = tested on: Candida albicans AJCC 10231; experiment: as above; settings: 24 h, start 10^5 cfu/ml
Description: as §2, with “respectively. The fungicidal activity of the compounds of the present invention is measured in a suspension test (trivial modification of the European Standard method EN 1275).” for “respectively.”

[10] = 1% b.w. compound in amphoteric surfactant (cocamidopropyl betaine, 10% a.i.)
[11] = 1% b.w. compound in anionic surfactant (sodium laureth sulfate, 10% a.i.)
[12] = 1% b.w. compound in non-ionic surfactant (decyl glucoside, 10% a.i.)
[13] = 1% b.w. compound in shampoo formulation, pH 6

Question: Which log reduction ([1]; contact time 30 min) does the source give for CCCCCC(=O)Nc1ccc(O)c(C(=O)O)c1 [compound 596, 5-hexanoylamino-salicylic acid] here?
Answer: The log reduction was >5 log.

Question: And the residual cell count ([1]; contact time 30 min)?
Answer: Its residual cell count is <100 cfu/ml.

Question: What about the log reduction ([2]; contact time 30 min) of the same compound?
Answer: The log reduction was >5 log.

Question: And the residual cell count ([2]; contact time 30 min)?
Answer: The residual cell count was <100 cfu/ml.

Question: What about the log reduction ([3]; contact time 30 min) of the same compound?
Answer: Its log reduction is >5 log.

Question: What about the residual cell count ([3]; contact time 30 min) of the same compound?
Answer: Its residual cell count is <100 cfu/ml.

Question: What about the log reduction [4] of the same compound?
Answer: Its log reduction is >4 log.

Question: And the residual cell count [4]?
Answer: Its residual cell count is <100 cfu/ml.

Question: And the log reduction [5, 10]?
Answer: Its log reduction is >3 log.

Question: What about the residual cell count [5, 10] of the same compound?
Answer: Its residual cell count is <100 cfu/ml.

Question: And the log reduction [5, 11]?
Answer: Its log reduction is >3 log.

Question: What about the residual cell count [5, 11] of the same compound?
Answer: Its residual cell count is <100 cfu/ml.

Question: And the log reduction [5, 12]?
Answer: Its log reduction is >3 log.

Question: And the residual cell count [5, 12]?
Answer: Its residual cell count is <100 cfu/ml.

Question: And the log reduction [5, 13]?
Answer: The log reduction was >3 log.

Question: And the residual cell count [5, 13]?
Answer: The residual cell count was <100 cfu/ml.

Question: And the log reduction [6, 10]?
Answer: Its log reduction is >3 log.

Question: What about the residual cell count [6, 10] of the same compound?
Answer: The residual cell count was <100 cfu/ml.

Question: What about the log reduction [6, 11] of the same compound?
Answer: Its log reduction is >3 log.

Question: What about the residual cell count [6, 11] of the same compound?
Answer: The residual cell count was <100 cfu/ml.

Question: And the log reduction [6, 12]?
Answer: Its log reduction is >3 log.

Question: What about the residual cell count [6, 12] of the same compound?
Answer: The residual cell count was <100 cfu/ml.

Question: What about the log reduction [7, 10] of the same compound?
Answer: Its log reduction is >3 log.

Question: And the residual cell count [7, 10]?
Answer: Its residual cell count is <100 cfu/ml.

Question: And the log reduction [7, 11]?
Answer: Its log reduction is >3 log.

Question: What about the residual cell count [7, 11] of the same compound?
Answer: The residual cell count was <100 cfu/ml.

Question: What about the log reduction [7, 12] of the same compound?
Answer: The log reduction was >3 log.

Question: And the residual cell count [7, 12]?
Answer: The residual cell count was <100 cfu/ml.

Question: And the log reduction [7, 13]?
Answer: The log reduction was >3 log.

Question: What about the residual cell count [7, 13] of the same compound?
Answer: Its residual cell count is <100 cfu/ml.

Question: What about the log reduction [8, 10] of the same compound?
Answer: The log reduction was 2.3 log.

Question: What about the residual cell count [8, 10] of the same compound?
Answer: The residual cell count was 1.2 × 10^3 cfu/ml.

Question: And the log reduction [8, 11]?
Answer: The log reduction was 2.1 log.

Question: What about the residual cell count [8, 11] of the same compound?
Answer: Its residual cell count is 1.7 × 10^3 cfu/ml.

Question: And the log reduction [8, 12]?
Answer: Its log reduction is 1.1 log.

Question: What about the residual cell count [8, 12] of the same compound?
Answer: The residual cell count was 1.9 × 10^4 cfu/ml.

Question: What about the log reduction [9, 10] of the same compound?
Answer: Its log reduction is >3 log.

Question: And the residual cell count [9, 10]?
Answer: Its residual cell count is <100 cfu/ml.

Question: And the log reduction [9, 11]?
Answer: Its log reduction is 1.2 log.

Question: What about the residual cell count [9, 11] of the same compound?
Answer: Its residual cell count is 1.4 × 10^4 cfu/ml.

Question: What about the log reduction [9, 12] of the same compound?
Answer: Its log reduction is >3 log.

Question: What about the residual cell count [9, 12] of the same compound?
Answer: Its residual cell count is <100 cfu/ml.

Question: Which log reduction ([3]; contact time 24 h) does the source give for CCCCCCCCCCCC(=O)Nc1ccc(O)c(C(=O)O)c1 [compound 597] here?
Answer: Its log reduction is >5 log.

Question: What about the residual cell count ([3]; contact time 24 h) of the same compound?
Answer: The residual cell count was 1.6 × 10^3 cfu/ml.

Question: For O=C(O)c1cc(NC(=O)C2CCCCC2)ccc1O [compound 601, 5-cyclohexanoylamino-salicylic acid], which log reduction ([1]; contact time 24 h) is on record?
Answer: Its log reduction is 4.3 log.

Question: What about the residual cell count ([1]; contact time 24 h) of the same compound?
Answer: The residual cell count was 9.1 × 10^2 cfu/ml.

Question: What about the log reduction ([2]; contact time 24 h) of the same compound?
Answer: Its log reduction is 4.8 log.

Question: And the residual cell count ([2]; contact time 24 h)?
Answer: The residual cell count was 6.1 × 10^2 cfu/ml.

Question: What about the log reduction ([3]; contact time 24 h) of the same compound?
Answer: The log reduction was >5 log.

Question: And the residual cell count ([3]; contact time 24 h)?
Answer: The residual cell count was <100 cfu/ml.
